How the values were obtained:
Test in all cases: biochemical
Type in all cases: biochemical
382 unique human kinases [1] = biological target: T1, 382 unique human kinases (Homo sapiens, UniProt P04049); conditions: RAF1, compound at 10 uM, duplicate values; for remaining activity at 10 µM: read-out: % Enzyme Activity (relative to DMSO controls)
T1 construct: purchased Reaction Biology (HotSpot contract assay)

382 unique human kinases [2] = biological target: T2, 382 unique human kinases (Homo sapiens, UniProt Q00537); conditions: kinase CDK17/cyclin Y (PCTK2), compound 10 uM; for remaining activity at 10 µM: read-out: % Enzyme Activity (relative to DMSO controls)
T2 construct: purchased Reaction Biology (HotSpot contract assay)

382 unique human kinases [3] = biological target: T3, 382 unique human kinases (Homo sapiens, UniProt P00533); conditions: EGFR, 10 uM; for remaining activity at 10 µM: read-out: % Enzyme Activity (relative to DMSO controls)
T3 construct: purchased Reaction Biology (HotSpot contract assay)

382 unique human kinases [4] = biological target: T4, 382 unique human kinases (Homo sapiens, UniProt P16234); conditions: kinase PDGFRa, compound 10 uM; for remaining activity at 10 µM: read-out: % Enzyme Activity (relative to DMSO controls)
T4 construct: purchased Reaction Biology (HotSpot contract assay)
T4 sequence (P16234 24-1089): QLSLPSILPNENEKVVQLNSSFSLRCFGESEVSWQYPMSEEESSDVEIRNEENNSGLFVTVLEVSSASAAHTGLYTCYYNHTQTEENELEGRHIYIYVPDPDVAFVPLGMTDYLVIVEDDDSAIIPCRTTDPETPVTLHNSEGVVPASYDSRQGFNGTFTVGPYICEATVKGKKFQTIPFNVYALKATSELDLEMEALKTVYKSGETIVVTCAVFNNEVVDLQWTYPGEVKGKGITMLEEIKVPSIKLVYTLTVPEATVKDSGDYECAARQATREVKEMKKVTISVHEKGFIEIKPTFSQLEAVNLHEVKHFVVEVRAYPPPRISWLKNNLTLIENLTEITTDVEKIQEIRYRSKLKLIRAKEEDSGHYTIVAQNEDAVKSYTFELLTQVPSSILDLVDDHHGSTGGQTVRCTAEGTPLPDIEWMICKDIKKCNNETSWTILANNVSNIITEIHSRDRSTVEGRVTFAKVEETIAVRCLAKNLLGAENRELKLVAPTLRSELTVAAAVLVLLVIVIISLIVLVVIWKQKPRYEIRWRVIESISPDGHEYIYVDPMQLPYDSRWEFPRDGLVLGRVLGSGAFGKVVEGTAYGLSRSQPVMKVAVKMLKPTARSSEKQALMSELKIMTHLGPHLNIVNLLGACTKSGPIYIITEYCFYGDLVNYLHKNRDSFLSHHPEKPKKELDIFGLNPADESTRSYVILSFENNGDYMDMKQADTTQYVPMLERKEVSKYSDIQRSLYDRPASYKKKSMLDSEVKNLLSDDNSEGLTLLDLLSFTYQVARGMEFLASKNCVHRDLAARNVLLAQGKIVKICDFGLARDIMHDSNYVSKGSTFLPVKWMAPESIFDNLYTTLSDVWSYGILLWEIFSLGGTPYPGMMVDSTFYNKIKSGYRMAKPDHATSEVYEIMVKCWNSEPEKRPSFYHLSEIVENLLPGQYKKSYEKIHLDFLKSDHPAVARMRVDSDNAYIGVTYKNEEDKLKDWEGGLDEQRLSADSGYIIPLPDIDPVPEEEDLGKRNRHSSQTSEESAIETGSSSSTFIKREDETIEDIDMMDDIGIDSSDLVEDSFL

382 unique human kinases [5] = biological target: T5, 382 unique human kinases (Homo sapiens, UniProt Q9BXA6); conditions: kinase SSTK/TSSK6, compound 10 uM; for remaining activity at 10 µM: read-out: % Enzyme Activity (relative to DMSO controls)
T5 construct: purchased Reaction Biology (HotSpot contract assay)
T5 sequence (Q9BXA6 whole entry): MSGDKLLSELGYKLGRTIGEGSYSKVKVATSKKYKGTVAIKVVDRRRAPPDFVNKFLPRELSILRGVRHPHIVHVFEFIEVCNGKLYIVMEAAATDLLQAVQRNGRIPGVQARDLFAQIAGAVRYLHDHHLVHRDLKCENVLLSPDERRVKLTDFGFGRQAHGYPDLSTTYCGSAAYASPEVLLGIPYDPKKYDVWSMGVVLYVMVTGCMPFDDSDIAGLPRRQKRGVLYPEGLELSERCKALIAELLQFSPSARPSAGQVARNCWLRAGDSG

382 unique human kinases [6] = biological target: T6, 382 unique human kinases (Homo sapiens, UniProt Q8N4C8); conditions: MINK/MINK1, 10 uM; for remaining activity at 10 µM: read-out: % Enzyme Activity (relative to DMSO controls)
T6 construct: purchased Reaction Biology (HotSpot contract assay)
T6 sequence (Q8N4C8 whole entry): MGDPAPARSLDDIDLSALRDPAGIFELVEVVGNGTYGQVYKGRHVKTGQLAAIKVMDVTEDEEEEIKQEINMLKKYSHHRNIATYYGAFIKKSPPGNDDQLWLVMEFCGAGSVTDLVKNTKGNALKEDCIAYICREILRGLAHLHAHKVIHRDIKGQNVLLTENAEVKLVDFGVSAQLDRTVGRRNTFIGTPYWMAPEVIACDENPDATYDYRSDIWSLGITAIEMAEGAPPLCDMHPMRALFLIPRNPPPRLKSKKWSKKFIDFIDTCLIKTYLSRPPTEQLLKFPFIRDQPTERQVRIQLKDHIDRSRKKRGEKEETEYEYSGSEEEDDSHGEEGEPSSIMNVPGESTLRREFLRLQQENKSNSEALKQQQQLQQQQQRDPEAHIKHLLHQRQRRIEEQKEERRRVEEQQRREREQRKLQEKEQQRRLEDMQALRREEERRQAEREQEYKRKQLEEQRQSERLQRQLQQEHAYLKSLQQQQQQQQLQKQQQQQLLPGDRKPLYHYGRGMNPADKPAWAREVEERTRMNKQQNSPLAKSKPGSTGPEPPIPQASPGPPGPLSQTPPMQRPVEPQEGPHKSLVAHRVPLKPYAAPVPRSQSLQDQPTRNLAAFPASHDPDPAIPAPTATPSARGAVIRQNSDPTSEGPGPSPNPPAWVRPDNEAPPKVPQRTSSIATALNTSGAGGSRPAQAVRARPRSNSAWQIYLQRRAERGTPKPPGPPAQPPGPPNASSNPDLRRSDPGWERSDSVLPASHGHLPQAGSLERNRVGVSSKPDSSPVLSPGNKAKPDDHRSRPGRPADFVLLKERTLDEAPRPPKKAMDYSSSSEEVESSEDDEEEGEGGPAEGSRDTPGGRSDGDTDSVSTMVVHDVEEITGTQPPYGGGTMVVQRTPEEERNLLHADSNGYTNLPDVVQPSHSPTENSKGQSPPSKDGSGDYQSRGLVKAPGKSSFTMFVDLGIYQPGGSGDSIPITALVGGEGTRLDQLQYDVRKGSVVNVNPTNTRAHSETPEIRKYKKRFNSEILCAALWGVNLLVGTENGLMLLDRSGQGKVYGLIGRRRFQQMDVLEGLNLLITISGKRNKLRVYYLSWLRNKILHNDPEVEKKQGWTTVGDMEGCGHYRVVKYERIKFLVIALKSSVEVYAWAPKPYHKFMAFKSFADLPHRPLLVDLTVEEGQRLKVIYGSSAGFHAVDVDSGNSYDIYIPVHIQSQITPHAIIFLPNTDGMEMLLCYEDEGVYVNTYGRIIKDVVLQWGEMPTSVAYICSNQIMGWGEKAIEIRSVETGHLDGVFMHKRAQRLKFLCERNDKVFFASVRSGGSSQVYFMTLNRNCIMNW

382 unique human kinases [7] = biological target: T7, 382 unique human kinases (Homo sapiens, UniProt Q13882); conditions: BRK, 10 uM; for remaining activity at 10 µM: read-out: % Enzyme Activity (relative to DMSO controls)
T7 construct: purchased Reaction Biology (HotSpot contract assay)
T7 sequence (Q13882 whole entry): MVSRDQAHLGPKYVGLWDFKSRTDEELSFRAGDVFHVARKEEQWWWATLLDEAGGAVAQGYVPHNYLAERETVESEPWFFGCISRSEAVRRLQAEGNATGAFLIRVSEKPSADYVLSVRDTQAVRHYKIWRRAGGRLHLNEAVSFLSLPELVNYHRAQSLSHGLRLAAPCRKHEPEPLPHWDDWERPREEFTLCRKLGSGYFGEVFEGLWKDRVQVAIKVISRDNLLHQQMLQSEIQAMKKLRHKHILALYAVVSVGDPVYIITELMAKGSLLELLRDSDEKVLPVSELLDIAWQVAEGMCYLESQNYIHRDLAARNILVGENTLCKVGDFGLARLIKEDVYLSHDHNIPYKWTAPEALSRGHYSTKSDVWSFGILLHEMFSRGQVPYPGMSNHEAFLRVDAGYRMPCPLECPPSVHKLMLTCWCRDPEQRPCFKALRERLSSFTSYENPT

382 unique human kinases [8] = biological target: T8, 382 unique human kinases (Homo sapiens, UniProt P00533, A750P/DEL747-749); conditions: EGFR (d747-749/A750P), 10 uM; for remaining activity at 10 µM: read-out: % Enzyme Activity (relative to DMSO controls)
T8 construct: purchased Reaction Biology (HotSpot contract assay)

382 unique human kinases [9] = biological target: T9, 382 unique human kinases (Homo sapiens, UniProt P00519, E255K); conditions: ABL1 (E255K), [ATP] 5 µM, compound 10 uM; for remaining activity at 10 µM: read-out: % Enzyme Activity (relative to DMSO controls)
T9 construct: purchased Reaction Biology (HotSpot contract assay)
T9 sequence (P00519 whole entry E255K): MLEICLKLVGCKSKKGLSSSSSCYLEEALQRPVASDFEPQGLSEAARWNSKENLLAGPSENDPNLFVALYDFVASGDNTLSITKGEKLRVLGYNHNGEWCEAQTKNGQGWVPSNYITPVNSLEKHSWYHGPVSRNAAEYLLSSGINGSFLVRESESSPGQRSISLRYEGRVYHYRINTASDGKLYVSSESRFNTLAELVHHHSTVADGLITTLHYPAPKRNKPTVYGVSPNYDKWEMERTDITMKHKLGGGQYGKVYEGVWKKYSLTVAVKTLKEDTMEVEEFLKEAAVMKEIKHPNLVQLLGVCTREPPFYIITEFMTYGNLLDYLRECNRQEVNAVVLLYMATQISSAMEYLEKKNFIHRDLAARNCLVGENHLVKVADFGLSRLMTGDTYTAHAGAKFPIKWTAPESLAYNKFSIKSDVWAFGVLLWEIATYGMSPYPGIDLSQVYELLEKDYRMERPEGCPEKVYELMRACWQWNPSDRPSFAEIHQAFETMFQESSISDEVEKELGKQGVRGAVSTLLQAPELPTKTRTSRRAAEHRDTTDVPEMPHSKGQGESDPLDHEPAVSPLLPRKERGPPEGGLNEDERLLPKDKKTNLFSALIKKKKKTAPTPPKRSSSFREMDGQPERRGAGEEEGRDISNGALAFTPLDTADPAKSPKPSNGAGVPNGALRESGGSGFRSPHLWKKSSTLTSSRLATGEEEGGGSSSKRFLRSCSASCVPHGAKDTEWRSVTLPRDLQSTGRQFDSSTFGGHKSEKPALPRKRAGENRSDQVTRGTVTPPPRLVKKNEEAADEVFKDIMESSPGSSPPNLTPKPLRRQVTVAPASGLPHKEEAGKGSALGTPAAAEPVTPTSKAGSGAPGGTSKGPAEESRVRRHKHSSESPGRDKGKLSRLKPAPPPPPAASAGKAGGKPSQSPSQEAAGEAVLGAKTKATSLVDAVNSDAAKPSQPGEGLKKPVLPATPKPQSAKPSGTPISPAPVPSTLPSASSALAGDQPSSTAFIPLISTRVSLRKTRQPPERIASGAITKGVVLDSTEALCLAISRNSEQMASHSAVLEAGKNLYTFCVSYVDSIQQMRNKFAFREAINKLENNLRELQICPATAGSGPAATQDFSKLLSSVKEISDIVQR

382 unique human kinases [10] = biological target: T10, 382 unique human kinases (Homo sapiens, UniProt Q86UE8); conditions: TLK2, 10 uM; for remaining activity at 10 µM: read-out: % Enzyme Activity (relative to DMSO controls)
T10 construct: purchased Reaction Biology (HotSpot contract assay)
T10 sequence (Q86UE8 whole entry): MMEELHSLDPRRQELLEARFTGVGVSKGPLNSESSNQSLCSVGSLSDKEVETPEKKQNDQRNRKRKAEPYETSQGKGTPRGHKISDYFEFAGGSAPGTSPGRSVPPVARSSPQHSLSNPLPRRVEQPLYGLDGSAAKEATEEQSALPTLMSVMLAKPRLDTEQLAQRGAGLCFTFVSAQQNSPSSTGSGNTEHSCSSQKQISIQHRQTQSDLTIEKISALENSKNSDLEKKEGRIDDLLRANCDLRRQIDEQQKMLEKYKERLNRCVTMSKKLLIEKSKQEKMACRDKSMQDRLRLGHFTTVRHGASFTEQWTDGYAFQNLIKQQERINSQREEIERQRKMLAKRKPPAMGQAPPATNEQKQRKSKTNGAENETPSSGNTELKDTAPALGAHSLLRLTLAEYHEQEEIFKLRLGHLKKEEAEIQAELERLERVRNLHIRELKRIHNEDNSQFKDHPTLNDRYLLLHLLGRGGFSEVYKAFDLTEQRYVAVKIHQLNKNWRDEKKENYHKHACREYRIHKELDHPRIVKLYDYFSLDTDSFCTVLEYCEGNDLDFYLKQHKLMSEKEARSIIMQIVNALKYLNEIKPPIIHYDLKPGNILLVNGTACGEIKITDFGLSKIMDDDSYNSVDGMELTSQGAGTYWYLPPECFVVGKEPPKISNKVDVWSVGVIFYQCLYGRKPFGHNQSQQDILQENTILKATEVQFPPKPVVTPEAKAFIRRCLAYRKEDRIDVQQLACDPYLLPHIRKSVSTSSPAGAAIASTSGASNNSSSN

382 unique human kinases [11] = biological target: T11, 382 unique human kinases (Homo sapiens, UniProt P11362); conditions: FGFR1, [ATP] 5 µM, compound 10 uM; for remaining activity at 10 µM: read-out: % Enzyme Activity (relative to DMSO controls)
T11 construct: purchased Reaction Biology (HotSpot contract assay)

382 unique human kinases [12] = biological target: T12, 382 unique human kinases (Homo sapiens, UniProt P36888, D835Y); conditions: FLT3 (D835Y), [ATP] 20 µM, compound 10 uM; for remaining activity at 10 µM: read-out: % Enzyme Activity (relative to DMSO controls)
T12 construct: purchased Reaction Biology (HotSpot contract assay)
T12 sequence (P36888 27-993 D835Y): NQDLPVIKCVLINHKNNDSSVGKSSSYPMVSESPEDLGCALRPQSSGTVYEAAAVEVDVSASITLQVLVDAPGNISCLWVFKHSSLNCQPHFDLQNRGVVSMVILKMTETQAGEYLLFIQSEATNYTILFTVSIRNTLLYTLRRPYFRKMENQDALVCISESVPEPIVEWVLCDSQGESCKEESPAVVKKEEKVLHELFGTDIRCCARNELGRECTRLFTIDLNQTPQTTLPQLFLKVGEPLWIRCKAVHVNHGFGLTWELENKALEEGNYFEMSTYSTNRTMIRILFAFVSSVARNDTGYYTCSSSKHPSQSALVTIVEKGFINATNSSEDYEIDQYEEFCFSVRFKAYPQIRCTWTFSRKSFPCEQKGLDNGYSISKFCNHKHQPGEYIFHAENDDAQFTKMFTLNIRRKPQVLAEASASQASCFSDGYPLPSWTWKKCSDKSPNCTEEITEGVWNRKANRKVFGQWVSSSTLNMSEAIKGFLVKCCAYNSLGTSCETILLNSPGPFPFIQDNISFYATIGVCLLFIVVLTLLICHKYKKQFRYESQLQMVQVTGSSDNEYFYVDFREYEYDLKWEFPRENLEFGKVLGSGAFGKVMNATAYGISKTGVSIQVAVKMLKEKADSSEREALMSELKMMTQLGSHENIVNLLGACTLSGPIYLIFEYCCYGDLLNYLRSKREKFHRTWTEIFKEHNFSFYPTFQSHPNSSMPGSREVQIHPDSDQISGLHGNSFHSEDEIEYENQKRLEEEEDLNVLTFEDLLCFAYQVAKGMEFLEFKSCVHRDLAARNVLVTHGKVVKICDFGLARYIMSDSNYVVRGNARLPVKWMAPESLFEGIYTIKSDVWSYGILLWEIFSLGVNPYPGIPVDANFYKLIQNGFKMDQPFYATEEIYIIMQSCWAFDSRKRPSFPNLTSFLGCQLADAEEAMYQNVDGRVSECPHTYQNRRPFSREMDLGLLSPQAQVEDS

382 unique human kinases [13] = biological target: T13, 382 unique human kinases (Homo sapiens, UniProt O94806); conditions: PKCnu/PRKD3, [ATP] 30 µM, compound 10 uM; for remaining activity at 10 µM: read-out: % Enzyme Activity (relative to DMSO controls)
T13 construct: purchased Reaction Biology (HotSpot contract assay)
T13 sequence (O94806 1-890): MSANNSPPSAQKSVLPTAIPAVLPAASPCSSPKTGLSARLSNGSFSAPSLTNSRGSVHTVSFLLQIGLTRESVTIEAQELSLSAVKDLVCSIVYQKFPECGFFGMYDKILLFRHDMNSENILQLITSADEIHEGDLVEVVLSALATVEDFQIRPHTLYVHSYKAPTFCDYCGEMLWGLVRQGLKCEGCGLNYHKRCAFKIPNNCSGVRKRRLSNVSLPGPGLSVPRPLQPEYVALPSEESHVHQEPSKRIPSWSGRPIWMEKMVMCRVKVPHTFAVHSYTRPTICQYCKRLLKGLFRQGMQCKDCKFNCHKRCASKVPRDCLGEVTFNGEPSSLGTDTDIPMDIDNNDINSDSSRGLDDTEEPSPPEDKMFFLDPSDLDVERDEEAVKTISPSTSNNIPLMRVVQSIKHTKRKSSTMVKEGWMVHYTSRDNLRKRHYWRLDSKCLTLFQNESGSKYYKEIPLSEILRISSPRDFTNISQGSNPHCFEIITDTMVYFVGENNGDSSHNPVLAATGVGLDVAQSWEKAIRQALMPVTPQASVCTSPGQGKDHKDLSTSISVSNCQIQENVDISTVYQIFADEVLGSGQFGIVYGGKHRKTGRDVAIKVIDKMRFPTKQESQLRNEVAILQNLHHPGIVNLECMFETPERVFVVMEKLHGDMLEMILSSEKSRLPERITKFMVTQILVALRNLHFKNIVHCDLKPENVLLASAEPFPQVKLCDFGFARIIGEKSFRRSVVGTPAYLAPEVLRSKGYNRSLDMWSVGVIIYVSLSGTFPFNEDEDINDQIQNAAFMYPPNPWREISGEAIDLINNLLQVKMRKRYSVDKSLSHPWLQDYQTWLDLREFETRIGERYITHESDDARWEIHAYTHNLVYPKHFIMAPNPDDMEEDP

SMILES | remaining activity at 10 µM (382 unique human kinases [1]) | remaining activity at 10 µM (382 unique human kinases [2]) | remaining activity at 10 µM (382 unique human kinases [3]) | remaining activity at 10 µM (382 unique human kinases [4]) | remaining activity at 10 µM (382 unique human kinases [5]) | remaining activity at 10 µM (382 unique human kinases [6]) | remaining activity at 10 µM (382 unique human kinases [7]) | remaining activity at 10 µM (382 unique human kinases [8]) | remaining activity at 10 µM (382 unique human kinases [9]) | remaining activity at 10 µM (382 unique human kinases [10]) | remaining activity at 10 µM (382 unique human kinases [11]) | remaining activity at 10 µM (382 unique human kinases [12]) | remaining activity at 10 µM (382 unique human kinases [13]) | further results
CC(C)c1cc(-c2n[nH]c(=O)n2-c2ccc3c(ccn3C)c2)c(O)cc1O [Ganetespib (STA9090)] | 106% | 86.5% | 76% | 82.6% | 86.5% | 73.6% | 67.4% | 67.9% | – | – | – | – | – | –
CC(C)c1cc(-c2n[nH]c(=O)n2-c2ccc3c(ccn3C)c2)c(O)cc1O [Ganetespib] | – | – | – | – | – | – | – | – | 4.77% | 91.9% | 58.5% | 18.6% | 54.7% | –
CCNC(=O)c1noc(-c2cc(C(C)C)c(O)cc2O)c1-c1ccc(CN2CCOCC2)cc1 [Luminespib (AUY-922)] | 105% | 80.7% | 95.1% | 85.4% | 122% | 86.4% | 84.8% | 102% | – | – | – | – | – | % Enzyme Activity (relative to DMSO controls) (382 unique human kinases [1]): 103.94%; % Enzyme Activity (relative to DMSO controls) (382 unique human kinases [2]): 80.06%; % Enzyme Activity (relative to DMSO controls) (382 unique human kinases [3]): 93.47%; % Enzyme Activity (relative to DMSO controls) (382 unique human kinases [4]): 83.27%; % Enzyme Activity (relative to DMSO controls) (382 unique human kinases [5]): 122.22%; % Enzyme Activity (relative to DMSO controls) (382 unique human kinases [6]): 85.21%; % Enzyme Activity (relative to DMSO controls) (382 unique human kinases [7]): 83.67%; % Enzyme Activity (relative to DMSO controls) (382 unique human kinases [8]): 98.51%
CCNC(=O)c1noc(-c2cc(C(C)C)c(O)cc2O)c1-c1ccc(CN2CCOCC2)cc1 [Luminespib] | – | – | – | – | – | – | – | – | 14.7% | 98.7% | 102% | 78.6% | 120% | % Enzyme Activity (relative to DMSO controls) (382 unique human kinases [9]): 14.20%; % Enzyme Activity (relative to DMSO controls) (382 unique human kinases [10]): 97.34%; % Enzyme Activity (relative to DMSO controls) (382 unique human kinases [11]): 97.95%; % Enzyme Activity (relative to DMSO controls) (382 unique human kinases [12]): 78.51%; % Enzyme Activity (relative to DMSO controls) (382 unique human kinases [13]): 116.94%
